From PubChem BioAssay (NCI)
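All cell lines were grown in 96-well plates and treated with compound for 48 hours. TGI denotes the concentration required for complete inhibition of growth.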

Legend:
Assay in all cases: NCI tumour cell line growth inhibition, 48 h
[1] = test system: CCRF-CEM leukemia
[2] = test system: SNB-19 CNS
[3] = test system: HOP-92 NSCLC
[4] = test system: SF-295 CNS
[5] = test system: HL-60(TB) leukemia
[6] = test system: SR leukemia
[7] = test system: SNB-78 CNS
[8] = test system: EKVX NSCLC
[9] = test system: XF 498 CNS
[10] = test system: SK-OV-3 ovarian
[11] = test system: UACC-62 melanoma
[12] = test system: SW-620 colon
[13] = test system: OVCAR-4 ovarian
[14] = test system: UACC-257 melanoma
[15] = test system: U251 CNS
[16] = test system: DMS 114 small cell lung
[17] = test system: OVCAR-8 ovarian
[18] = test system: RXF 393 renal
[19] = test system: M19-MEL melanoma
[20] = test system: HOP-62 NSCLC
[21] = test system: RXF-631 renal
[22] = test system: DMS 273 small cell lung
[23] = test system: MALME-3M melanoma
[24] = test system: SK-MEL-2 melanoma
[25] = test system: A549 NSCLC
[26] = test system: OVCAR-3 ovarian
[27] = test system: 786-0 renal
[28] = test system: HCT-15 colon
[29] = test system: IGROV1 ovarian
[30] = test system: HT29 colon
[31] = test system: M14 melanoma
[32] = test system: CAKI-1 renal
[33] = test system: A498 renal
[34] = test system: K-562 leukemia
[35] = test system: NCI-H522 lung
[36] = test system: SF-539 CNS
[37] = test system: LXFL 529 NSCLC
[38] = test system: HCT-116 colon
[39] = test system: OVCAR-5 ovarian
[40] = test system: TK-10 renal
[41] = test system: NCI-H460 lung
[42] = test system: SK-MEL-5 melanoma
[43] = test system: COLO 205 colon
[44] = test system: ACHN renal
[45] = test system: SNB-75 CNS
[46] = test system: HOP-18 NSCLC
[47] = test system: KM12 colon
[48] = test system: UO-31 renal
[49] = test system: SK-MEL-28 melanoma
[50] = test system: MOLT-4 leukemia
[51] = test system: NCI-H23 lung
[52] = test system: SN12C renal
[53] = test system: LOX IMVI melanoma
[54] = test system: DLD-1 colon
[55] = test system: SF-268 CNS
[56] = test system: RPMI-8226 leukemia
[57] = test system: KM20L2 colon
[58] = test system: HCC-2998 colon
[59] = test system: MCF7 breast
[60] = test system: NCI-H226 lung
[61] = test system: P388/ADR leukemia
[62] = test system: P388 leukemia
[63] = test system: SN12K1 renal
[64] = test system: NCI/ADR-RES ovarian

Structure (SMILES): C=CC1(C)/C(=N\O)C(C)(CC)C(=O)N1O (stereo unspecified)
- TGI [1]: > 100 µM
- TGI [2]: > 100 µM
- TGI [3]: > 100 µM
- TGI [4]: > 100 µM
- TGI [5]: > 100 µM
- TGI [6]: > 100 µM
- TGI [7]: > 100 µM
- TGI [8]: > 100 µM
- TGI [9]: > 100 µM
- TGI [10]: > 100 µM
- TGI [11]: > 100 µM
- TGI [12]: > 100 µM
- TGI [13]: > 100 µM
- TGI [14]: > 100 µM
- TGI [15]: > 100 µM
- TGI [16]: > 100 µM
- TGI [17]: > 100 µM
- TGI [18]: > 100 µM
- TGI [19]: > 100 µM
- TGI [20]: > 100 µM
- TGI [21]: > 100 µM
- TGI [22]: > 100 µM
- TGI [23]: > 100 µM
- TGI [24]: > 100 µM
- TGI [25]: > 100 µM
- TGI [26]: > 100 µM
- TGI [27]: > 100 µM
- TGI [28]: > 100 µM
- TGI [29]: > 100 µM
- TGI [30]: > 100 µM
- TGI [31]: > 100 µM
- TGI [32]: > 100 µM
- TGI [33]: > 100 µM
- TGI [34]: > 100 µM
- TGI [35]: > 100 µM
- TGI [36]: > 100 µM
- TGI [37]: > 100 µM
- TGI [38]: > 100 µM
- TGI [39]: > 100 µM
- TGI [40]: > 100 µM
- TGI [41]: > 100 µM
- TGI [42]: > 100 µM
- TGI [43]: > 100 µM
- TGI [44]: > 100 µM
- TGI [45]: > 100 µM
- TGI [46]: > 100 µM
- TGI [47]: > 100 µM
- TGI [48]: > 100 µM
- TGI [49]: > 100 µM
- TGI [50]: > 100 µM
- TGI [51]: > 100 µM
- TGI [52]: > 100 µM
- TGI [53]: > 100 µM
- TGI [54]: > 100 µM
- TGI [55]: > 100 µM

Structure (SMILES): CCCNCC(O)/C=C/[Si](C)(C)C (stereo unspecified) (tested in a mixture with another compound)
- TGI [1]: > 100 µM
- TGI [2]: > 100 µM
- TGI [3]: > 100 µM
- TGI [56]: > 100 µM
- TGI [4]: > 100 µM
- TGI [5]: > 100 µM
- TGI [6]: > 100 µM
- TGI [7]: > 100 µM
- TGI [8]: > 100 µM
- TGI [9]: 74.8 µM
- TGI [57]: > 100 µM
- TGI [10]: > 100 µM
- TGI [11]: > 100 µM
- TGI [12]: > 100 µM
- TGI [14]: > 100 µM
- TGI [15]: > 100 µM
- TGI [16]: > 100 µM
- TGI [17]: > 100 µM
- TGI [18]: > 100 µM
- TGI [19]: > 100 µM
- TGI [21]: > 100 µM
- TGI [23]: > 100 µM
- TGI [24]: > 100 µM
- TGI [25]: > 100 µM
- TGI [26]: > 100 µM
- TGI [28]: > 100 µM
- TGI [29]: > 100 µM
- TGI [30]: > 100 µM
- TGI [31]: > 100 µM
- TGI [33]: > 100 µM
- TGI [34]: > 100 µM
- TGI [35]: > 100 µM
- TGI [36]: > 100 µM
- TGI [37]: > 100 µM
- TGI [38]: > 100 µM
- TGI [39]: > 100 µM
- TGI [40]: > 100 µM
- TGI [41]: > 100 µM
- TGI [42]: > 100 µM
- TGI [43]: > 100 µM
- TGI [44]: > 100 µM
- TGI [45]: > 100 µM
- TGI [46]: > 100 µM
- TGI [47]: > 100 µM
- TGI [48]: > 100 µM
- TGI [49]: > 100 µM
- TGI [51]: > 100 µM
- TGI [58]: > 100 µM
- TGI [52]: > 100 µM
- TGI [53]: > 100 µM
- TGI [54]: > 100 µM

Structure (SMILES): CCCCCCc1ccc(O)cc1O
- TGI [1]: > 100 µM
- TGI [2]: > 100 µM
- TGI [3]: 86.9 µM
- TGI [56]: > 77 µM
- TGI [4]: > 100 µM
- TGI [5]: > 100 µM
- TGI [7]: > 100 µM
- TGI [8]: > 100 µM
- TGI [9]: > 100 µM
- TGI [57]: > 100 µM
- TGI [59]: > 100 µM
- TGI [10]: > 100 µM
- TGI [11]: > 79.1 µM
- TGI [12]: > 100 µM
- TGI [13]: > 100 µM
- TGI [14]: > 85.1 µM
- TGI [15]: > 100 µM
- TGI [17]: > 100 µM
- TGI [18]: > 100 µM
- TGI [19]: 98 µM
- TGI [60]: > 100 µM
- TGI [20]: > 100 µM
- TGI [22]: > 100 µM
- TGI [23]: > 100 µM
- TGI [24]: 64 µM
- TGI [25]: > 100 µM
- TGI [26]: > 100 µM
- TGI [61]: > 100 µM
- TGI [62]: > 100 µM
- TGI [28]: > 100 µM
- TGI [29]: > 93.8 µM
- TGI [30]: > 100 µM
- TGI [63]: > 100 µM
- TGI [33]: > 100 µM
- TGI [34]: > 100 µM
- TGI [35]: > 100 µM
- TGI [36]: > 100 µM
- TGI [64]: > 100 µM
- TGI [38]: > 100 µM
- TGI [39]: > 100 µM
- TGI [41]: > 100 µM
- TGI [42]: > 79.1 µM
- TGI [43]: > 100 µM
- TGI [45]: > 100 µM
- TGI [46]: > 92.5 µM
- TGI [47]: > 100 µM
- TGI [48]: 86.7 µM
- TGI [49]: > 100 µM
- TGI [50]: 97.4 µM
- TGI [51]: > 100 µM
- TGI [58]: > 100 µM
- TGI [52]: > 100 µM
- TGI [53]: > 100 µM
- TGI [54]: > 100 µM
- TGI [55]: > 100 µM
